This test has as its target RpfF (Xanthomonas campestris, UniProt Q7CLS3). Briefly: HPLC and LC-MS of product formed by purified His-tagged RpfF. The format is biochemical. The following applies: formed from 3-hydroxydodecanoyl-ACP (dehydratase and thioesterase); Tris-HCl pH 7.5, ATP, Mg2+, Vibrio harveyi AasS; 37 °C, 30 min.

Sequence of RpfF (Q7CLS3 entry or part of it): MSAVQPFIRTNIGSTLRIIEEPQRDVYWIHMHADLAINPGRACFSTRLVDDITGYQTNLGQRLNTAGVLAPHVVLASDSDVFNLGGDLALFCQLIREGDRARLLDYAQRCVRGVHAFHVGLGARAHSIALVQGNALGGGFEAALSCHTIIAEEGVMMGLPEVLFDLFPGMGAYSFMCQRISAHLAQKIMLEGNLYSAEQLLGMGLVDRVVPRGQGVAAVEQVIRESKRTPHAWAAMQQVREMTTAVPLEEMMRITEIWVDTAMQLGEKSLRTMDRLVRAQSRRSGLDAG

Turning to `CCCCCCCCC/C=C\C(=O)O` [BDSF, cis-2-dodecenoic acid], the “HPLC and LC-MS of product formed by purified His-tagged RpfF” value is “detected in the reaction mixture containing RpfF and 3-OH-C12:0-ACP”.

For the origin of these results see PMC4542539, “The Multiple DSF-family QS Signals are Synthesized from Carbohydrate and Branched-chain Amino Acids via the FAS Elongation Cycle” (Scientific Reports, 2015).
